Patent US20120301551A1, “COMPOUNDS AND COMPOSITIONS FOR TREATING NEURONAL DEATH OR NEUROLOGICAL DYSFUNCTION” (Neurotech Pharmaceuticals Co., Ltd., priority 2005, published 2012)
Values joined by “and” are separate entries in the source; they are usually repeats but may differ in a detail not shown here. Equal entries are not always repeated. “Also recorded” adds a separate entry of the source. Where two headings read alike, the source gives them in different places. Residues, ends and D or L forms follow the SMILES beside them. *: point of attachment. Cbz = O=C(OCc1ccccc1)*; CH2F = FC*

Legend:
[1] = tested on: mixed cortical cell cultures containing neurons and glia; experiment: Fe2+-induced free radical neurotoxicity in mixed cortical cell cultures (LDH release); format: cell-based, mouse; settings: for Fe^2+-induced free radical neurotoxicity, effect in words: 50 μM Fe^2+, 24 hr, 2-Hydroxy-TTBA or 2-Hydroxy-TPEA at doses as low as 0.3 μM, vitamin E at higher doses, Li^+ 10 mM (legend 5 mM); for IC50: 50 μM FeCl2, neuronal death 24 hr later (LDH), read-out: IC50 (50% protection against Fe^2+-induced free radical neurotoxicity)
Procedure: (§1) Mouse cortical cell cultures (DIV 11-15) were exposed to 50 μM Fe^2+ or 10 mM BSO, alone or with inclusion of 5 mM Li^+. Neuronal death was analyzed 24 hr later by measuring levels of LDH released into the bathing medium, mean±SEM (n=9-12 culture wells per condition).
Mouse cortical cell cultures (DIV 11-15) were exposed to 30 μM Fe^2+ or 10 mM BSO, alone or in the presence of 1 μM 2-hydroxy TTBA, 10-100 μM vitamin E, or 5 mM Li^+.
(§2) For mixed neuron-glia culture, mouse cerebral cortices were removed from brains of the 11-15 day-old-fetal mice (E11-15), gently triturated and plated on 24 well plates (2×10^5 cells/plate) precoated with 100 μg/ml poly-D-lysine and 4 pg/ml laminin. Cultures were maintained at 37° C. in a humidified 5% CO2 atmosphere.
After 7-8 days in vitro (DIV 7-8), 10 μM cytosine arabinofuranoside (Ara-C) was included to halt overgrowth of glia. The drug treatment was carried on DIV 11-15 cortical cell culture.
Oxidative stress was induced by exposing mixed cortical cell cultures containing neurons and glia (DIV 11-15) to 50 μM FeCl2, a hydroxyl radical-producing transition metal via a Fenton reaction, or 10 mM DL-buthionine-[S,R]-sulfoximine (BSO), a glutathione depleting agent.

[2] = tested on: mixed cortical cell cultures containing neurons and glia; experiment: BSO-induced free radical neurotoxicity in mixed cortical cell cultures (LDH release); format: cell-based, mouse
Procedure: Mouse cortical cell cultures (DIV 11-15) were exposed to 10 mM BSO, alone or with indicated doses of 2-Hydroxy-TTBA or 2-Hydroxy-TPEA. Neuronal death was analyzed 24 hr later by measuring levels of LDH released into the bathing medium, mean±SEM (n=9-12 culture wells per condition). *, Significant difference from BSO alone, p<0.05 using ANOVA and Student-Newman-Keuls test.
as §1
Mouse cortical cell cultures (DIV 11-15) were exposed to 30 μM Fe^2+ or 10 mM BSO, alone or in the presence of 1 μM 2-hydroxy TTBA, 10-100 μM vitamin E, or 5 mM Li^+. Neuronal death was analyzed 24 h later by measuring LDH efflux in the bathing media (mean±SEM, n=12). *, Significant difference from the relevant control (Fe^2+ or BSO alone), p<0.05 using ANOVA and Student-Newman-Keuls test.
as §2, with “atmosphere. Plating media consist of Eagles minimal essential media (MEM, Earles salts, supplied glutamine-free) supplemented with 5% horse serum, 5% fetal bovine serum, 26.5 mM bicarbonate, 2 mM glutamine, and 21 mM glucose.” for “atmosphere.”
After 7-8 days in vitro (DIV 7-8), 10 μM cytosine arabinofuranoside (Ara-C) was included to halt overgrowth of glia. The drug treatment was carried on DIV 11-15 cortical cell culture. Overall neuronal cell injury was assessed by measuring amount of lactate dehydrogenase (LDH) released into the bathing medium 24 hr after neurotoxic insults as previously described (Koh and Choi, J Neurosci Methods 20:83-90, 1987).
Oxidative stress was induced by exposing mixed cortical cell cultures containing neurons and glia (DIV 11-15) to 50 μM FeCl2, a hydroxyl radical-producing transition metal via a Fenton reaction, or 10 mM DL-buthionine-[S,R]-sulfoximine (BSO), a glutathione depleting agent. Widespread neuronal death was observed 24 hours later. […] Administration of vitamin E prevented Fe^2+-induced free radical neurotoxicity at higher doses. This implies that 2-Hydroxy-TTBA or 2-Hydroxy-TPEA is a potent neuroprotectant against oxidative stress.

[3] = tested on: cortical cell cultures containing neurons and glia; experiment: cyclosporine A or calyculin A-induced neuronal cell apoptosis in cortical cell cultures; format: cell-based, mouse; settings: 24 hr; for cyclosporine A-induced neuronal cell apoptosis, effect in words: 20 μM cyclosporine A, 100 μM Vitamin E, 1 μM 2-hydroxy-TTBA, 1 μM 2-hydroxy-TPEA
Procedure: Mouse cortical cell cultures (DIV 10-12) were exposed to 20 μM cyclosporine A or 10 nM calculin A, alone or with inclusion of 0.3-30 mM Li. Neuronal death was analyzed 24-28 hr later by measuring levels of LDH released into the bathing medium, mean±SEM (n=9-12 culture wells per condition).
Mouse cortical cell cultures (DIV 10-12) were exposed to 20 μM cyclosporine A, alone or with 100 μM Vitamin E, 1 μM 2-hydroxy-TTBA, or 1 μM 2-hydroxy-TPEA. Neuronal death was analyzed 24 hr later by measuring levels of LDH released into the bathing medium, mean±SEM (n=9-12 culture wells per condition).
Cortical cell cultures containing neurons and glia at 10-12 days in vitro (DIV 10-12) were exposed to 20 μM cyclosporine A (CsA) or 10 nM caliculin A (cal A). Neurons underwent widespread apoptosis 24 hr later as previously reported (McDonald et al., 1996; Ko et al., 2000). […] This implies that Li^+ and the neuroprotective drugs (vitamin E, trolox, BAS, CBAS, FBAS, TBAS, PBAS, MBAS, NPAA, NPPAA, 2-Hydroxy-TTBA, and 2-Hydroxy-TPEA) selectively prevent neuronal cell apoptosis and free radical-mediated necrosis, respectively.

[4] = tested on: neuron-rich cortical cell cultures; experiment: serum deprivation-induced neuronal cell apoptosis; format: cell-based, mouse; settings: 24 hr; 5 mM Li^+, 100 μM zVADfmk, 1 μM 2-hydroxy TTBA
Procedure: (§3) (B) Neuron-rich cortical cell cultures (DIV 7) were deprived of serum, alone or with addition of 100 μM zVADfmk, 1 μM 2-hydroxy TTBA, or 5 mM Li^+. Neuronal death was analyzed 24 hr later by counting viable neurons excluding trypan (mean±SEM, n=4). *, Significant difference from the relevant control (serum deprivation alone), p<0.05 using ANOVA and Student-Neuman-Keuls test. (C) Western blot analysis of FADD antibody following immunoprecipitation with Fas antibody in the same samples above.
(§4) Additional experiments were performed to examine if targeting both neuronal cell necrosis and apoptosis would result in synergic neuroprotection in […] transgenic mice. […] Neuronal cell apoptosis was induced by serum deprivation in neuron-rich cortical cell cultures as reported, which was prevented by addition of 5 mM Li^+ as well as zVADfmk, a broad spectrum inhibitor of caspases (FIG. 5B). […] Additional experiments were performed to examine if Li^+ would prevent Fas signaling pathway. […] This implies that 2-Hydroxy-TTBA and Li^+ blocks oxidative neuronal cell necrosis and apoptosis, respectively.

Fas-FADD interaction = Fas-FADD interaction in serum-deprived neuron-rich cultures (immunoprecipitation, Western blot); format: cell-based, mouse; settings: deprived of serum for 8 hr
Procedure: as §3, §4

G93A transgenic mice = format: in vivo, mouse
Procedure: Animals were daily fed with 2-hydroxy TTBA (30 mg/kg/d), 0.2% lithium carbonate (200 mg/kg/d, Li), or a combination of both (2-hydroxy TTBA+Li) from 8 weeks of age in diet.
Animals were daily fed with 2-hydroxy TTBA (30 mg/kg/d), 0.2% lithium carbonate (Li), or a combination of both (2-hydroxy TTBA+Li) from 8 weeks of age in diet.
C & D: (C) Bright-field photomicrographs of cresyl violet-stained ventral horn sections from the wild type (a), or G93AA transgenic mice treated with vehicle (b), or with a combination of 2-hydroxy TTBA+Li (c) at 16 weeks of age.

[5] = tested on: Fas, FADD, cleaved caspase-8 and caspase-3; experiment: Fas pathway in lumbar spinal cord of G93A transgenic mice (Western blot); settings: at 12 weeks of age; 2-hydroxy-TTBA 30 mg/kg/d, Li^+ 200 mg/kg/d in the diet
Procedure: G93A transgenic mice received oral administration of 2-hydroxy-TTBA (30 mg/kg/d) in the diet from 8 weeks of age.

[6] = single-dose toxicity test; settings: mouse, in vivo
Procedure: Single-dose toxicity test of compounds showing good results in the above three efficacy tests were evaluated.

beta-amyloid (Aβ42) = experiment: suppression of beta-amyloid (Aβ42) production in CHO cells (ELISA); format: cell-based, Chinese hamster; settings: Cricetulus griseus; CHO cells stably transfected with human wild APP695 and PS1ΔExon9; culture medium, ELISA; read-out: Aβ42 lowering effect (IC50)
Procedure: The suppressing effects of many drug candidates on production of beta-amyloid were evaluated in CHO cell line having the increased level of beta-amyloid. Results were shown as IC50 (uM) (Item C of Table 3 below).
In the Table 3, A, B and C mean neuron protecting effect against Fe^+2, suppressing effect on production of NO and suppressing effect on production of beta-amyloid, respectively. The term “ND” means “Not determined.”
Cells were treated with increasing concentrations of various chemicals in Chinese hamster ovary (CHO) cells stably transfected with human wild APP695 and the PS1ΔExon9, and analyzed Aβ42 levels in culture medium by colorimetric sandwich ELISA kit (BIOSOURCE, Camarillo, Calif.). In CHO cells, IC50 of Chemical—01-08 on Aβ42 lowering effect was 20-100 uM (Table 4).

[7] = 2-hydroxy TTBA 30 mg/kg/d, 0.2% lithium carbonate, or both, in diet from 8 weeks of age, n=13

[Li+] [Li^+, lithium ion, reference compound]
Fe^2+-induced free radical neurotoxicity, effect in words [1]: did not attenuate; also recorded: does not attenuate
Fe^2+-induced neuronal death (oxidative stress), effect in words ([1]; FIG. 5A: 30 μM Fe^2+, 24 h, 1 μM 2-hydroxy TTBA (submicromolar), 5 mM Li^+): not attenuated and not
BSO-induced free radical neurotoxicity, effect in words ([2]; 10 mM BSO, 24 hr, 2-Hydroxy-TTBA or 2-Hydroxy-TPEA at doses as low as 0.3 μM, Li^+ 10 mM (legend 5 mM)): did not attenuate; also recorded: does not attenuate
BSO-induced neuronal death (oxidative stress), effect in words ([2]; FIG. 5A: 10 mM BSO, 24 h, 1 μM 2-hydroxy TTBA (submicromolar), 5 mM Li^+): not attenuated and not
neuronal cell apoptosis, effect in words ([3]; 20 μM cyclosporine A or 10 nM calyculin A, Li^+ at doses of 3-30 mM): dose-dependently attenuated
serum deprivation-induced neuronal cell apoptosis, effect in words [4]: prevented; also recorded: prevents apoptosis
Fas-FADD interaction, effect in words (Fas-FADD interaction): blocked
Mortality (survival) (G93A transgenic mice; [7]): 137.2 days and 137.2^a ± 2.20 days
Onset from PaGE (G93A transgenic mice; [7]): 113.3 days and 113.3^a ± 2.28 days
Onset from Rotarod (G93A transgenic mice; [7]): 114.7 days and 114.7^a ± 2.23 days
weight loss, % of the wild type (G93A transgenic mice; G93A mice at 18 weeks of age, oral administration in diet): 53%
extension reflex, motor strength, and coordination (G93A transgenic mice; G93A mice, drug in diet): improved
degeneration (loss) of ventral motor neurons in lumbar spinal cord (G93A transgenic mice; at 16 weeks of age): 58%
motor performance versus vehicle-treated control (G93A transgenic mice; from 11 weeks to 18 weeks, in the diet): better motor performance
levels of Fas, FADD, cleaved caspase-8 and caspase-3 (Fas pathway) in lumbar spinal cord [5]: completely blocked

O=C(O)c1cc(NCCCc2ccc([N+](=O)[O-])cc2)ccc1O [NPPAA, 5-[3-(4-nitrophenyl)-n-propyl]aminosalicylic acid]
IC50 ([1]; Mus musculus, Neuron): 0.2 µM

O=C(O)c1cc(NCc2c(F)c(F)c(F)c(F)c2F)ccc1O [PBAS, 5-(pentafluoro-benzyl)aminosalicylic acid]
IC50 [1]: 0.1 µM

O=C(O)c1cc(NCc2ccc(C(F)(F)F)cc2)ccc1O [TBAS]
IC50 [1]: 0.31 µM

Cc1c(C)c2c(c(C)c1O)CCC(C)(C(=O)O)O2 (centres unmarked) [Trolox, reference compound]
IC50 ([1]; Mus musculus, Neuron): 3.34 µM

O=C(O)c1cc(NCCc2cccc(C(F)(F)F)c2)ccc1O [chemical 04, 2-Hydroxy-5-[2-(3-trifluoromethyl-phenyl)-ethylamino]-benzoic acid]
single-dose toxicity, result in words [6]: high toxicity or dose-independent toxicity

O=C(O)c1cc(NCCc2cc(C(F)(F)F)cc(C(F)(F)F)c2)ccc1O [chemical 27, 5-[2-(3,5-Bis-trifluoromethyl-phenyl)-ethylamino]-2-hydroxy-benzoic acid]
IC50 (beta-amyloid (Aβ42)): 109 µM
single-dose toxicity, result in words [6]: did not show dose-dependent result

O=C(O)c1cc(NCCCc2ccc(C(F)(F)F)cc2)ccc1O [chemical 42, 2-Hydroxy-5-[3-(4-trifluoromethyl-phenyl)-propylamino]-benzoic acid]
IC50 (beta-amyloid (Aβ42)): 68.3 µM
single-dose toxicity, result in words [6]: high toxicity or dose-independent toxicity

COC(=O)C[C@H](NC(=O)[C@H](C)NC(=O)[C@@H](NC(=O)OCc1ccccc1)C(C)C)C(=O)CF [zVADfmk] (Cbz-Val-Ala-Asp(OMe)-CH2F)
serum deprivation-induced neuronal cell apoptosis, effect in words [4]: prevented

Vitamin E [reference compound]
IC50 [1]: 22 µM
Fe^2+-induced free radical neurotoxicity, effect in words [1]: prevented
cyclosporine A-induced neuronal cell apoptosis, effect in words [3]: do not attenuate
cyclosporine A-induced neuronal cell apoptosis, effect in words ([3]; listed as vitamin E): not attenuated
